Measured values as given in ChEMBL document CHEMBL1127263, “Synthesis of B-NOR-4-AZA-5-androstane compound as 5-reductase inhibitor” (Bioorg Med Chem Lett, 1994).

Target: Steroid 5-alpha-reductase (Rattus norvegicus) (UniProt P24008+P31214)
Assay: Inhibition of rat Steroid 5-alpha-reductase was determined at 10e-8 M concentration
Type: protein assay

Chain of Steroid 5-alpha-reductase (Rattus norvegicus) (P24008 whole entry, looked up): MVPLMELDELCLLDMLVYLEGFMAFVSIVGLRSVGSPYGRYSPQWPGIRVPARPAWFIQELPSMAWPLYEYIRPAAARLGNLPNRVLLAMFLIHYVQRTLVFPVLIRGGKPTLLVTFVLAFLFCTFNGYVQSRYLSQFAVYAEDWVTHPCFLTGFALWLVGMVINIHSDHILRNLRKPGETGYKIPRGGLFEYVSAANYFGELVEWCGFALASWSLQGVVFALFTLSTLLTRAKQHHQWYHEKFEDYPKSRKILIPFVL
Chain of Steroid 5-alpha-reductase (Rattus norvegicus) (P31214 whole entry, looked up): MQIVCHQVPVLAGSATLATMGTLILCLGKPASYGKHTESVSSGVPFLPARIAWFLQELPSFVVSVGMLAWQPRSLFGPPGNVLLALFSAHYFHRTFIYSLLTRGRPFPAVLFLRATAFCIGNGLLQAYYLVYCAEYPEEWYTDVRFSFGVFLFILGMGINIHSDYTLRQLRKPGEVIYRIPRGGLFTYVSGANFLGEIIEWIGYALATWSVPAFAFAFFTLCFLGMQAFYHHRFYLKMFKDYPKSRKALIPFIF

CC12CCC3C(C[C@H]4NC(=O)CCC34C)C1CCC2C(=O)NC(c1ccccc1)c1ccccc1 (stereo partly specified) gave an inhibition of 63%.
